ChEMBL document CHEMBL1201862, “PubChem BioAssay data set” (2004)
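Exposure lasted 48 hours, with cells grown in 96-well plates and compounds tested at five concentrations. The concentration for 50% growth inhibition is given as GI50.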 Calls of active or inactive are those of the source. No stated cut-off is given here; in the data, active = GI50 up to about 1.1 µM and inactive = higher.

Key:
Experiment in all cases: growth of human tumour cells (NCI), 48 h
HCT-15 = test system: HCT-15
OVCAR-4 = test system: OVCAR-4
COLO 205 = test system: COLO 205
MCF7 = test system: MCF7
OVCAR-5 = test system: OVCAR-5
SF-295 = test system: SF-295
UACC-62 = test system: UACC-62
UACC-257 = test system: UACC-257
TK-10 = test system: TK-10
SF-539 = test system: SF-539
KM12 = test system: KM12
ACHN = test system: ACHN
K562 = test system: K562
NCI-H226 = test system: NCI-H226
Hs-578T = test system: Hs-578T
SK-MEL-5 = test system: SK-MEL-5
SN12C = test system: SN12C
SR = test system: SR
HCC 2998 = test system: HCC 2998
MDA-MB-435 = test system: MDA-MB-435
NCI/ADR-RES = test system: NCI/ADR-RES
PC-3 = test system: PC-3
RXF 393 = test system: RXF 393
Malme-3M = test system: Malme-3M
LOX IMVI = test system: LOX IMVI
A549 = test system: A549
NCI-H460 = test system: NCI-H460
CCRF-CEM = test system: CCRF-CEM
M14 = test system: M14
EKVX = test system: EKVX
U-251 = test system: U-251
SF-268 = test system: SF-268
BT-549 = test system: BT-549
SK-OV-3 = test system: SK-OV-3
OVCAR-3 = test system: OVCAR-3
CAKI-1 = test system: CAKI-1
NCI-H23 = test system: NCI-H23
SNB-19 = test system: SNB-19
MDA-MB-231 = test system: MDA-MB-231
HOP-92 = test system: HOP-92
IGROV-1 = test system: IGROV-1
786-0 = test system: 786-0
HOP-62 = test system: HOP-62
MDA-N = test system: MDA-N
OVCAR-8 = test system: OVCAR-8
HCT-116 = test system: HCT-116
NCI-H522 = test system: NCI-H522
HT-29 = test system: HT-29
MOLT-4 = test system: MOLT-4
SW-620 = test system: SW-620
SK-MEL-28 = test system: SK-MEL-28
SNB-75 = test system: SNB-75
UO-31 = test system: UO-31
DU-145 = test system: DU-145
HL-60 = test system: HL-60
RPMI-8226 = test system: RPMI-8226
SK-MEL-2 = test system: SK-MEL-2

For `O=C(CN(C(=O)OC12CC3CC(CC(C3)C1)C2)C(=O)OC12CC3CC(CC(C3)C1)C2)Oc1ccc([N+](=O)[O-])cc1`, the GI50 (HCT-15) was over 100 µM, the GI50 (OVCAR-4) was > 100 µM (inactive) and the GI50 (COLO 205) was > 100 µM (inactive). For the same compound, the GI50 (MCF7) was > 100 µM (inactive), the GI50 (OVCAR-5) was > 100 µM (inactive) and the GI50 (SF-295) was > 100 µM (inactive). The GI50 (UACC-62) was > 100 µM (inactive), the GI50 (UACC-257) was > 100 µM (inactive) and the GI50 (TK-10) was 52.4 µM (inactive). For the same compound, the GI50 (SF-539) was > 100 µM (inactive), the GI50 (KM12) was > 100 µM (inactive) and the GI50 (ACHN) was > 100 µM (inactive). The GI50 (K562) was 58.1 µM (inactive), the GI50 (NCI-H226) was > 100 µM (inactive) and the GI50 (Hs-578T) was > 100 µM (inactive). The GI50 (SK-MEL-5) was 87.5 µM (inactive), the GI50 (SN12C) was 86.3 µM (inactive) and the GI50 (SR) was > 100 µM (inactive). The GI50 (HCC 2998) was > 100 µM (inactive), the GI50 (MDA-MB-435) was 45.3 µM (inactive) and the GI50 (NCI/ADR-RES) was 85.3 µM (inactive). For the same compound, the GI50 (PC-3) was 16.1 µM (inactive), the GI50 (RXF 393) was 42 µM (inactive) and the GI50 (Malme-3M) was 75 µM (inactive). For the same compound, the GI50 (LOX IMVI) was > 100 µM (inactive), the GI50 (A549) was > 100 µM (inactive) and the GI50 (NCI-H460) was > 100 µM (inactive). The GI50 (CCRF-CEM) was 30.5 µM (inactive), the GI50 (M14) was > 100 µM (inactive) and the GI50 (EKVX) was > 100 µM (inactive). The GI50 (U-251) was 69.3 µM (inactive), the GI50 (SF-268) was > 100 µM (inactive) and the GI50 (BT-549) was > 100 µM (inactive). For the same compound, the GI50 (SK-OV-3) was > 100 µM (inactive), the GI50 (OVCAR-3) was > 100 µM (inactive) and the GI50 (CAKI-1) was > 100 µM (inactive). For the same compound, the GI50 (NCI-H23) was 93.8 µM (inactive), the GI50 (SNB-19) was > 100 µM (inactive) and the GI50 (MDA-MB-231) was 76.2 µM (inactive). The GI50 (HOP-92) was > 100 µM (inactive), the GI50 (IGROV-1) was > 100 µM (inactive) and the GI50 (786-0) was > 100 µM (inactive). The GI50 (HOP-62) was > 100 µM (inactive), the GI50 (MDA-N) was > 100 µM (inactive) and the GI50 (OVCAR-8) was > 100 µM (inactive). For the same compound, the GI50 (HCT-116) was > 100 µM (inactive), the GI50 (NCI-H522) was 59 µM (inactive) and the GI50 (HT-29) was > 100 µM (inactive). The GI50 (MOLT-4) was 4.2 µM (inactive), the GI50 (SW-620) was 56.6 µM (inactive) and the GI50 (SK-MEL-28) was > 100 µM (inactive). The GI50 (SNB-75) was > 100 µM (inactive) and the GI50 (UO-31) was > 100 µM (inactive).

For `CC1(C)CC2(C)CC1CC2O` (stereo not drawn), the GI50 (HCT-15) was over 100 µM, the GI50 (OVCAR-4) was > 100 µM (inactive) and the GI50 (COLO 205) was > 100 µM (inactive). The GI50 (MCF7) was > 100 µM (inactive), the GI50 (OVCAR-5) was > 100 µM (inactive) and the GI50 (SF-295) was > 100 µM (inactive). The GI50 (UACC-62) was > 100 µM (inactive), the GI50 (UACC-257) was > 100 µM (inactive) and the GI50 (TK-10) was > 100 µM (inactive). For the same compound, the GI50 (SF-539) was > 100 µM (inactive), the GI50 (KM12) was > 100 µM (inactive) and the GI50 (K562) was > 100 µM (inactive). The GI50 (NCI-H226) was > 100 µM (inactive), the GI50 (Hs-578T) was > 100 µM (inactive) and the GI50 (SK-MEL-5) was > 100 µM (inactive). The GI50 (SN12C) was > 100 µM (inactive), the GI50 (SR) was > 100 µM (inactive) and the GI50 (HCC 2998) was > 100 µM (inactive). The GI50 (DU-145) was > 100 µM (inactive), the GI50 (MDA-MB-435) was > 100 µM (inactive) and the GI50 (NCI/ADR-RES) was > 100 µM (inactive). The GI50 (PC-3) was > 100 µM (inactive), the GI50 (RXF 393) was > 100 µM (inactive) and the GI50 (Malme-3M) was > 100 µM (inactive). The GI50 (LOX IMVI) was > 100 µM (inactive), the GI50 (A549) was > 100 µM (inactive) and the GI50 (CCRF-CEM) was > 100 µM (inactive). The GI50 (M14) was > 100 µM (inactive), the GI50 (EKVX) was > 100 µM (inactive) and the GI50 (HL-60) was > 100 µM (inactive). The GI50 (U-251) was > 100 µM (inactive), the GI50 (SF-268) was > 100 µM (inactive) and the GI50 (BT-549) was > 100 µM (inactive). The GI50 (SK-OV-3) was > 100 µM (inactive), the GI50 (OVCAR-3) was > 100 µM (inactive) and the GI50 (CAKI-1) was > 100 µM (inactive). The GI50 (NCI-H23) was > 100 µM (inactive), the GI50 (SNB-19) was > 100 µM (inactive) and the GI50 (MDA-MB-231) was > 100 µM (inactive). The GI50 (IGROV-1) was > 100 µM (inactive), the GI50 (786-0) was > 100 µM (inactive) and the GI50 (HOP-62) was > 100 µM (inactive). The GI50 (MDA-N) was > 100 µM (inactive), the GI50 (OVCAR-8) was > 100 µM (inactive) and the GI50 (HCT-116) was > 100 µM (inactive). For the same compound, the GI50 (RPMI-8226) was > 100 µM (inactive), the GI50 (HT-29) was > 100 µM (inactive) and the GI50 (MOLT-4) was > 100 µM (inactive). The GI50 (SW-620) was > 100 µM (inactive), the GI50 (SK-MEL-28) was > 100 µM (inactive) and the GI50 (SNB-75) was > 100 µM (inactive). For the same compound, the GI50 (UO-31) was > 100 µM (inactive).

For `CCCCOC(=O)C(=O)C(CC(C(=O)Cc1ccccc1)c1ccccc1)C(=O)C=C(C)C` (stereo not drawn), the GI50 (HCT-15) was over 100 µM, the GI50 (OVCAR-4) was > 100 µM (inactive) and the GI50 (COLO 205) was > 100 µM (inactive). For the same compound, the GI50 (MCF7) was > 100 µM (inactive), the GI50 (OVCAR-5) was > 100 µM (inactive) and the GI50 (SF-295) was > 100 µM (inactive). The GI50 (UACC-62) was > 100 µM (inactive), the GI50 (UACC-257) was > 100 µM (inactive) and the GI50 (TK-10) was > 100 µM (inactive). The GI50 (SF-539) was > 100 µM (inactive), the GI50 (KM12) was > 100 µM (inactive) and the GI50 (ACHN) was > 100 µM (inactive). The GI50 (NCI-H226) was > 100 µM (inactive), the GI50 (Hs-578T) was > 100 µM (inactive) and the GI50 (SK-MEL-5) was > 100 µM (inactive). For the same compound, the GI50 (SN12C) was > 100 µM (inactive), the GI50 (HCC 2998) was > 100 µM (inactive) and the GI50 (DU-145) was > 100 µM (inactive). The GI50 (MDA-MB-435) was > 100 µM (inactive), the GI50 (NCI/ADR-RES) was > 100 µM (inactive) and the GI50 (PC-3) was > 100 µM (inactive). For the same compound, the GI50 (RXF 393) was > 100 µM (inactive), the GI50 (LOX IMVI) was > 100 µM (inactive) and the GI50 (A549) was > 100 µM (inactive). For the same compound, the GI50 (NCI-H460) was > 100 µM (inactive), the GI50 (CCRF-CEM) was 76.6 µM (inactive) and the GI50 (M14) was > 100 µM (inactive). For the same compound, the GI50 (EKVX) was > 100 µM (inactive), the GI50 (SK-MEL-2) was > 100 µM (inactive) and the GI50 (HL-60) was 50.1 µM (inactive). The GI50 (U-251) was > 100 µM (inactive), the GI50 (SF-268) was > 100 µM (inactive) and the GI50 (BT-549) was > 100 µM (inactive). The GI50 (SK-OV-3) was > 100 µM (inactive), the GI50 (OVCAR-3) was > 100 µM (inactive) and the GI50 (CAKI-1) was > 100 µM (inactive). The GI50 (NCI-H23) was > 100 µM (inactive), the GI50 (SNB-19) was > 100 µM (inactive) and the GI50 (MDA-MB-231) was > 100 µM (inactive). For the same compound, the GI50 (HOP-92) was > 100 µM (inactive), the GI50 (IGROV-1) was > 100 µM (inactive) and the GI50 (786-0) was > 100 µM (inactive). For the same compound, the GI50 (HOP-62) was > 100 µM (inactive), the GI50 (MDA-N) was > 100 µM (inactive) and the GI50 (OVCAR-8) was > 100 µM (inactive). For the same compound, the GI50 (HCT-116) was > 100 µM (inactive), the GI50 (NCI-H522) was > 100 µM (inactive) and the GI50 (HT-29) was > 100 µM (inactive). The GI50 (MOLT-4) was 83.9 µM (inactive), the GI50 (SW-620) was > 100 µM (inactive) and the GI50 (SK-MEL-28) was > 100 µM (inactive). For the same compound, the GI50 (SNB-75) was > 100 µM (inactive) and the GI50 (UO-31) was > 100 µM (inactive).
